These results are taken from patent US9650339B2, “Inhibitors of histone demethylases” (Gilead Sciences, Inc., priority 2013, dated 2017).

Type in all cases: cell-based
Test [1] has as its target T1, KDM4A (Homo sapiens, UniProt O75164).
T1 construct: Full length; host or cells: U2OS
T1 sequence (O75164 1-1064): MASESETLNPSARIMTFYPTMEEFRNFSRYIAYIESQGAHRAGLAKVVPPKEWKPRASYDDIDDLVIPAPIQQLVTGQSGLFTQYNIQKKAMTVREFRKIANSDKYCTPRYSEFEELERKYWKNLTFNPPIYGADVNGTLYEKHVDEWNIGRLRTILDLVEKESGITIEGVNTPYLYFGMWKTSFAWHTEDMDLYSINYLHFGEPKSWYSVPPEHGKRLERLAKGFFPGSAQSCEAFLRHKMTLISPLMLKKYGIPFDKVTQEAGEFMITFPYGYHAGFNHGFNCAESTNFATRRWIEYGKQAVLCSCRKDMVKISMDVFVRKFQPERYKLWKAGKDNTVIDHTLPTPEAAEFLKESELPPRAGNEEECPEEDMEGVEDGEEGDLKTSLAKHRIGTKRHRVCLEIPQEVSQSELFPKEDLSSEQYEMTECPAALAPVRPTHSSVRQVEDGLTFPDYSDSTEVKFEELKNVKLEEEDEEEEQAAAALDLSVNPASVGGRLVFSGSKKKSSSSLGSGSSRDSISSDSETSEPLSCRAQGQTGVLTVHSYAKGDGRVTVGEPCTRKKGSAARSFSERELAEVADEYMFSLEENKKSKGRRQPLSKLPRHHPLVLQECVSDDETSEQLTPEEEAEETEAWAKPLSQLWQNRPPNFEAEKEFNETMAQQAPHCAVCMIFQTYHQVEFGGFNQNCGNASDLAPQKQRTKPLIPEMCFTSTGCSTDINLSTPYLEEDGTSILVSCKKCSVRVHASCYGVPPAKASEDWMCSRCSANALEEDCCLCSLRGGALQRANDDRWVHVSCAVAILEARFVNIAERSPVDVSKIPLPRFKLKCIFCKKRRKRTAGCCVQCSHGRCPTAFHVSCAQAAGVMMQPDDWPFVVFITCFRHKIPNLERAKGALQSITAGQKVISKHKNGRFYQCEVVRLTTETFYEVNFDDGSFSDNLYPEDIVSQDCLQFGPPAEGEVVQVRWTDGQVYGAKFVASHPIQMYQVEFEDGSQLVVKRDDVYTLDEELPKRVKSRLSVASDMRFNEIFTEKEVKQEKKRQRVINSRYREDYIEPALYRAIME
The experiment in a line: Histone lysine demethylase immunofluorescence assay, U2OS cells transfected with KDM4A. Conditions: U2OS cells transfected with pCMVHA KDM4A; mark detected H3K9me3; 20 hours. As for the experimental part: (§1) U2OS cells were seeded 24 hours before transfection. Transfection was performed with Fugene HD transfection reagent as recommended by the manufacturer. 6 hours after transfection, the cells were harvested and seeded into multi well plates into media containing compound. The media used was DMEM containing 10% FBS and pen/strep. 20 hours after incubation of cells with compounds, the cells were washed in PBS, harvested by fixation with formaldehyde 4% aqueous solution, and washed in PBS. Subsequently, the cells were permeabilized in PBS with 0.2% Triton X-100 for. Blocking was performed in PBS with 0.2% Triton X-100 and 5% FBS. The cells were incubated with primary antibodies in blocking solution over night at 4° C. The primary antibodies used in the assays were HA.11 (Covance, MMS-101P) and the antibody detecting the mark specified in the table below. After incubation with primary antibodies, the cells were washed with PBS, incubated with secondary antibodies (Alexa fluor 594 goat anti rabbit IgG, Invitrogen, A11012; Alexa flour 488 donkey anti mouse IgG, Invitrogen, A21202) and Hoechst, (Sigma, 33342) in blocking solution, and washed again with PBS. Finally, PBS was added and high throughput imaging and analysis were performed by an IN Cell Analyzer 1000 (GE Healthcare). The robot software analyzed individual cells and divided these into HA+ (transfected cells) and HA− (non-transfected cells). The IC50 values were based on an average measure of the staining of the mark specified in the table below in the transfected cells.

The target of test [2] is T2, KDM6B (Homo sapiens, UniProt O15054).
T2 construct: (a.a. 1026-1682); host or cells: U2OS
Briefly: Histone lysine demethylase immunofluorescence assay, U2OS cells transfected with KDM6B. Conditions: U2OS cells transfected with pCMVHA KDM6B; mark detected H3K27me2; 20 hours. Here is the method: as §1

Test [3] concerns the target T3, KDM2A (Homo sapiens, UniProt Q9Y2K7).
T3 construct: Full length; host or cells: U2OS
T3 sequence (Q9Y2K7 1-1162): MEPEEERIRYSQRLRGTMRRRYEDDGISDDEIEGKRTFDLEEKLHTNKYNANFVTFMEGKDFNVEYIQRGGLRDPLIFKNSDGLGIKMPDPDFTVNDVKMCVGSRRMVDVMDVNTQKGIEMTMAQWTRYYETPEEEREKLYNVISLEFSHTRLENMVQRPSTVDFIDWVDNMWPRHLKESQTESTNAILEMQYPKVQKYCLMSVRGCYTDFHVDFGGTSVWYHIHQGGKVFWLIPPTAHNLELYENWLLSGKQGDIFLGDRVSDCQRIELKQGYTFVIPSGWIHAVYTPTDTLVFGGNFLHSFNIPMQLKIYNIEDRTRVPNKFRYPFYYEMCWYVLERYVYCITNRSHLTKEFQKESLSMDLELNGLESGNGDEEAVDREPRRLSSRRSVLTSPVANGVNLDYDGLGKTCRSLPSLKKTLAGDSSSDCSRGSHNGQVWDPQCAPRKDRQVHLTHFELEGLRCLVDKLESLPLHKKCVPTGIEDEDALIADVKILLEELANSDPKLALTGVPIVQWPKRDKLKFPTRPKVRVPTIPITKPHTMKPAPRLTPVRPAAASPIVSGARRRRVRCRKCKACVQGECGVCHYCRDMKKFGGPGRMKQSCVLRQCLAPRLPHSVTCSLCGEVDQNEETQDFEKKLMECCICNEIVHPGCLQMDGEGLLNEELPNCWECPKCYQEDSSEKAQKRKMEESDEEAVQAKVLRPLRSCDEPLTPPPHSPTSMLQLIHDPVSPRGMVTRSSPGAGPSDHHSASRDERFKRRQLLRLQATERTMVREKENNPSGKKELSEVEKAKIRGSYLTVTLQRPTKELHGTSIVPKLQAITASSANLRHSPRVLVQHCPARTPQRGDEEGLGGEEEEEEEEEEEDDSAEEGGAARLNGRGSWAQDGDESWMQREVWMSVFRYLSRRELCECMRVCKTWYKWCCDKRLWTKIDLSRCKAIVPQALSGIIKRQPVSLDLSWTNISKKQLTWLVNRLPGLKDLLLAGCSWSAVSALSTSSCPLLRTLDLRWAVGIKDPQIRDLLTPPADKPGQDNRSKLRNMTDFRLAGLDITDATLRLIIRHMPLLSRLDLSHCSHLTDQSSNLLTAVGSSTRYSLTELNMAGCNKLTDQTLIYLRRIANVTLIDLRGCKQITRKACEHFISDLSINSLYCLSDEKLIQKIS
Briefly: Histone lysine demethylase immunofluorescence assay, U2OS cells transfected with KDM2A. Conditions: U2OS cells transfected with pCMVHA KDM2A; mark detected H3K36me2; 20 hours. Here is the method:
as §1

T2 sequence (O15054 1026-1682 isoform O15054-1): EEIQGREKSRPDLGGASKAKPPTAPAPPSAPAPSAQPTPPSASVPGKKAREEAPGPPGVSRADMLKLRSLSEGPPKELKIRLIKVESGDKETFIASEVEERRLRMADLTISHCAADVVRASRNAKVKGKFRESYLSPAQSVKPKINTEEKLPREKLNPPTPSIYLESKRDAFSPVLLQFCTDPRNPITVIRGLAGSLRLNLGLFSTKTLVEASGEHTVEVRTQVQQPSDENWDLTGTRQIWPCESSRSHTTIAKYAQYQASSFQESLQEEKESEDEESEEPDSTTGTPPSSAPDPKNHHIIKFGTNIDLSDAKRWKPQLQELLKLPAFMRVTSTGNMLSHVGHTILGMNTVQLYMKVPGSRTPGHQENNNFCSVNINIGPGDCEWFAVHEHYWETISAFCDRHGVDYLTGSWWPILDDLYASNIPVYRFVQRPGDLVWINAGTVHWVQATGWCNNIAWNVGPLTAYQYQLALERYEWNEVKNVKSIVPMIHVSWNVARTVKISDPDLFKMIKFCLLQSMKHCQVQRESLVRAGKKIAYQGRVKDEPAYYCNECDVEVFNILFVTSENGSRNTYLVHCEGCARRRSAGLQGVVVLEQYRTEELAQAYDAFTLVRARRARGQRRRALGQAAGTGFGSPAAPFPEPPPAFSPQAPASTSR

Broadly, the IC50 is the point on the concentration scale where inhibition reaches its midpoint. High values mean weaker potency in that assay, low ones greater potency in that assay. For the compound `CCN(CCN(C)C)C(=O)CNCc1cc(CNC(=O)C(F)(F)F)ccn1` [Compound 25, N-[(2-{[({[2-(dimethylamino)ethyl]-(ethyl)carbamoyl}-methyl)amino]methyl}-pyrtdin-4-yl)methyl]-2,2,2-trifluoroacetamide], the results for the concentration for half-maximal inhibition (IC50) in test [1], in test [2] and in test [3] were 0.25 to 2.5 µM, > 2.5 µM and > 2.5 µM, respectively.
For the compound `CCN(CCN(C)C)C(=O)CNCc1cc(C2OCC(Cc3ccccc3)CN2C(=O)C(F)(F)F)ccn1` (stereo not drawn) [Compound 90, 2-[({4-[5-benzyl-3-(trifluoroacetyl)-1,3-oxazinan-2-yl]pyridin-2-yl}methyl)amino]-N-[2-(dimethylamino)-ethyl]-N-ethylacetamide], the IC50 was < 0.25 µM in test [1] and > 2.5 µM in test [2].
For the compound `CCN(CCN(C)C)C(=O)CNCc1cc(C2OCC3(CC3)CN2C(=O)C(F)(F)F)ccn1` (stereo not drawn) [Compound 91, N-[2--(dimethylamino)-ethyl]-N-ethyl-2-[({4-[7-(trifluoroacetyl)-5-oxa-7-azaspiro[2.5]-octan-6-yl]pyridin-2-yl}methyl)amino]-acetamide], the results for the IC50 in test [1], in test [2] and in test [3] were < 0.25 µM, > 2.5 µM and > 2.5 µM, respectively.
On to `CN(Cc1ccccc1F)C(=O)CNCc1cc(/C=N/CCO)ccn1` [Compound 92, N-[(2-fluorophenyl)methyl]-2-[({4-[[(2-hydroxyethyl)imino]-methyl]pyridin-2-yl}methyl)amino]-N-methylacetamide], for which the IC50 in test [3] was > 2.5 µM.
The same measure, in the same setting: the figure for `OCC/N=C/c1ccnc(CNCCc2ccccc2OCc2ccccc2)c1` [Compound 93, 2-[({2-[({2-[2-(benzyloxy)phenyl]-ethyl}amino)methyl]-pyridin-4-yl}methylidene)-amino]ethan-1-ol] is > 2.5 µM; for `CCN(CCC#N)C(=O)CNCc1cc(/C=N/CCO)ccn1` [Compound 94, N-(2-cyanoethyl)-N-ethyl-2-[({4-[[(2-hydroxyethyl)imino]-methyl]pyridin-2-yl}methyl)amino]-acetamide] it is > 2.5 µM; for `CC(C)C[C@H](NCc1cc(/C=N/CCO)ccn1)C(=O)N1CCCCC1` [Compound 95, (2S)-2-[({4-[[(2-hydroxyethyl)imino]-methyl]pyridin-2-yl}methyl)amino]-4-methyl-1-(piperidin-1-yl)pentan-1-one] it is > 2.5 µM.
Regarding `CCN(CCN(C)C)C(=O)CNCc1cc(C=O)ccn1` [Compound 101], the half-maximal inhibitory concentration (IC50) in test [1] is 0.25 to 2.5 µM; in test [2], > 2.5 µM.
On to `CN(CC(=O)N1CCCCC1)Cc1cc(C=O)ccn1` [Compound 120, 2-({methyl[2-oxo-2-(piperidin-1-yl)ethyl]amino}-methyl)pyridine-4-carbaldehyde], for which, in test [3], the IC50 is > 2.5 µM.
